Source: ChEMBL document CHEMBL1201862, “PubChem BioAssay data set” (2004)
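Cultured in 96-well plates, cells were exposed to test compound for 48 hours across five concentrations. GI50: concentration for 50% inhibition of growth.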 Calls of active or inactive are those of the source. No stated cut-off is given here; in the data, active = GI50 up to about 1.1 µM and inactive = higher.

Experiments:
Assay in all cases: DTP human tumour cell line panel, 48 h
SK-MEL-5 = tested on: SK-MEL-5
NCI-H226 = tested on: NCI-H226
HOP-62 = tested on: HOP-62
MDA-N = tested on: MDA-N
OVCAR-3 = tested on: OVCAR-3
NCI-H460 = tested on: NCI-H460
TK-10 = tested on: TK-10
Hs-578T = tested on: Hs-578T
UO-31 = tested on: UO-31
RXF 393 = tested on: RXF 393
A498 = tested on: A498
T47D = tested on: T47D
HT-29 = tested on: HT-29
PC-3 = tested on: PC-3
ACHN = tested on: ACHN
OVCAR-4 = tested on: OVCAR-4
SW-620 = tested on: SW-620
HL-60 = tested on: HL-60
SR = tested on: SR
SNB-75 = tested on: SNB-75

Measured: GI50

CCc1ccc(CCN2CCCCC2)nc1
inactive: SK-MEL-5 > 100 µM | NCI-H226 > 100 µM | HOP-62 > 100 µM | MDA-N > 100 µM | OVCAR-3 92.3 µM | NCI-H460 > 100 µM | TK-10 > 100 µM | Hs-578T 56.9 µM | UO-31 > 100 µM | RXF 393 > 100 µM | A498 > 100 µM | T47D > 100 µM | HT-29 > 100 µM | PC-3 > 100 µM | ACHN > 100 µM | OVCAR-4 > 100 µM | SW-620 > 100 µM

NC(=O)NC(=O)c1cccc(CNc2ccc(C(=O)N[C@@H](CCC(=O)O)C(=O)O)cc2)n1
inactive: SK-MEL-5 > 100 µM | NCI-H226 > 100 µM | HL-60 > 100 µM | MDA-N > 100 µM | OVCAR-3 > 100 µM | NCI-H460 > 100 µM | TK-10 > 100 µM | Hs-578T > 100 µM | UO-31 > 100 µM | HT-29 > 100 µM | PC-3 > 100 µM | ACHN > 100 µM | OVCAR-4 > 100 µM | SW-620 > 100 µM | SR > 100 µM

O=C(C=P(c1ccccc1)(c1ccccc1)c1ccccc1)c1ccc(-c2cccc([N+](=O)[O-])c2)s1
inactive: SK-MEL-5 29.9 µM | HOP-62 > 100 µM | HL-60 26 µM | MDA-N 29.7 µM | OVCAR-3 32.7 µM | SNB-75 24 µM | NCI-H460 39.4 µM | TK-10 83.8 µM | Hs-578T 52.5 µM | UO-31 48.2 µM | RXF 393 70.8 µM | A498 35.2 µM | HT-29 29.6 µM | PC-3 24.9 µM | ACHN 45.4 µM | OVCAR-4 31.3 µM | SW-620 38.2 µM | SR 42.5 µM

CC(C)(C)OC(=O)NCCCCC(N)NC(=O)c1ccccc1 (configuration not stated)
inactive: SK-MEL-5 > 100 µM | NCI-H226 > 100 µM | HOP-62 > 100 µM | MDA-N > 100 µM | OVCAR-3 > 100 µM | SNB-75 > 100 µM | NCI-H460 > 100 µM | TK-10 > 100 µM | Hs-578T > 100 µM | UO-31 > 100 µM | RXF 393 > 100 µM | A498 > 100 µM | T47D > 100 µM | HT-29 > 100 µM | PC-3 > 100 µM | ACHN > 100 µM | OVCAR-4 > 100 µM | SW-620 > 100 µM

NS(=O)(=O)c1nnc(NC(=O)Nc2ccc(Cl)c(Cl)c2)s1
inactive: SK-MEL-5 16.7 µM | NCI-H226 23.2 µM | HOP-62 17.8 µM | HL-60 28.8 µM | MDA-N 20.5 µM | OVCAR-3 24.9 µM | NCI-H460 19.1 µM | TK-10 20.6 µM | Hs-578T 29.2 µM | UO-31 27.4 µM | RXF 393 16.7 µM | A498 22 µM | T47D 19.9 µM | HT-29 16.7 µM | ACHN 34.2 µM | OVCAR-4 30.6 µM | SW-620 27.9 µM | SR 21.9 µM

O=c1cccc2n1CC1CNC[C@H]2C1 [CYTISINICLINE]
inactive: SK-MEL-5 > 100 µM | HOP-62 > 100 µM | MDA-N > 100 µM | OVCAR-3 > 100 µM | SNB-75 > 100 µM | NCI-H460 > 100 µM | TK-10 > 100 µM | Hs-578T > 100 µM | UO-31 > 100 µM | RXF 393 > 100 µM | T47D > 100 µM | HT-29 > 100 µM | PC-3 > 100 µM | ACHN > 100 µM | OVCAR-4 > 100 µM | SW-620 > 100 µM

NC(Cc1ccc(S(=O)(=O)O)cc1)C(=O)NC(Cc1ccc(S(=O)(=O)O)cc1)C(=O)NC(Cc1ccc(S(=O)(=O)O)cc1)C(=O)O (configuration not stated)
inactive: SK-MEL-5 > 100 µM | NCI-H226 > 100 µM | HOP-62 > 100 µM | HL-60 > 100 µM | MDA-N > 100 µM | OVCAR-3 > 100 µM | SNB-75 > 100 µM | NCI-H460 > 100 µM | TK-10 > 100 µM | Hs-578T > 100 µM | UO-31 > 100 µM | RXF 393 > 100 µM | A498 > 100 µM | T47D > 100 µM | HT-29 > 100 µM | PC-3 > 100 µM | ACHN > 100 µM | OVCAR-4 > 100 µM | SW-620 > 100 µM

C/C=C/C=C\C1OC(O)([C@H](CC)C(=O)NC/C=C/C=C(\C)[C@H](OC)C(C)C2OC(\C=C/C=C/C=C(\C)C(=O)c3c(O)ccn(C)c3=O)[C@H](O)[C@@H]2O)C(O)C(O)C1(C)C (some centres not stated)
inactive: SK-MEL-5 88.1 µM | NCI-H226 > 100 µM | HOP-62 > 100 µM | HL-60 54.3 µM | MDA-N > 100 µM | OVCAR-3 > 100 µM | SNB-75 > 100 µM | NCI-H460 > 100 µM | TK-10 > 100 µM | Hs-578T > 100 µM | UO-31 > 100 µM | RXF 393 > 100 µM | A498 > 100 µM | T47D 40.2 µM | HT-29 55 µM | PC-3 64.3 µM | ACHN > 100 µM | OVCAR-4 > 100 µM | SW-620 > 100 µM

O=[N+]([O-])c1cccc2nnccc12
inactive: SK-MEL-5 14.1 µM | NCI-H226 16 µM | HL-60 2.5 µM | MDA-N 17.6 µM | SNB-75 48.3 µM | NCI-H460 19.1 µM | TK-10 46.3 µM | Hs-578T 51.5 µM | UO-31 28.6 µM | RXF 393 63.5 µM | T47D 36.8 µM | HT-29 20.3 µM | PC-3 31.8 µM | ACHN 11.7 µM | SW-620 42 µM

O=C1NC(=O)C(C(c2ccc([N+](=O)[O-])cc2)C2C(=O)NC(=O)NC2=O)C(=O)N1
inactive: SK-MEL-5 > 100 µM | NCI-H226 > 100 µM | HOP-62 > 100 µM | HL-60 > 100 µM | MDA-N > 100 µM | OVCAR-3 > 100 µM | NCI-H460 > 100 µM | TK-10 > 100 µM | Hs-578T > 100 µM | UO-31 > 100 µM | RXF 393 > 100 µM | A498 > 100 µM | T47D > 100 µM | HT-29 > 100 µM | PC-3 > 100 µM | ACHN > 100 µM | OVCAR-4 > 100 µM | SW-620 > 100 µM

COC(=O)C1=COC(OC2OC(CO)C(O)C(O)C2O)C2C3CN4CCc5c([nH]c6ccccc56)C4(CC12)O3 (configuration not stated)
inactive: SK-MEL-5 > 100 µM | NCI-H226 > 100 µM | HOP-62 > 100 µM | HL-60 > 100 µM | MDA-N > 100 µM | OVCAR-3 > 100 µM | SNB-75 > 100 µM | NCI-H460 > 100 µM | TK-10 > 100 µM | UO-31 > 100 µM | RXF 393 > 100 µM | A498 > 100 µM | T47D > 100 µM | HT-29 > 100 µM | PC-3 > 100 µM | ACHN > 100 µM | OVCAR-4 > 100 µM | SW-620 > 100 µM | SR > 100 µM
